The results in this text go back to publication PMC11922053 (Science Advances, 2025).

Where a SMILES comes first, the peptide text is derived from it. Bridges are numbered along the chain shown (N, C = ends). [ ]: non-standard residue; d: D form. The star is where a group is joined. Biotin = O=C1N[C@H]2[C@H](CS[C@H]2CCCCC(=O)*)N1; 2Nal = N[C@@H](Cc1ccc2ccccc2c1)C(=O)O; Gly(cPent) = N[C@H](C(=O)O)C1CCCC1; Hyp = O=C(O)[C@@H]1C[C@@H](O)CN1; Pen = CC(C)(S)[C@H](N)C(=O)O; Api = NC1(C(=O)O)CCNCC1; Ahx = NCCCCCC(=O)O

This data set deals with chymotrypsin (Bos taurus, UniProt P00766). As to the kind of experiment: Protease stability assay with chymotrypsin. It is filed as in vitro ADME. Conditions: NCBP-4 versus CBP; 50:1 by mass, up to 30 min, LC-MS.

For the molecule `CC1(C)SSC[C@H](NC(=O)[C@H](Cc2ccccc2)NC(=O)[C@@H](NC(=O)[C@H](Cc2ccccc2)NC(=O)C2(NC(=O)[C@H](Cc3ccc4ccccc4c3)NC(=O)[C@H](CCCCN)NC(=O)CCCCCNC(=O)[C@@H](N)CCCCNC(=O)CCCC[C@@H]3SC[C@@H]4NC(=O)N[C@@H]43)CCNCC2)C2CCCC2)C(=O)N2C[C@H](O)C[C@H]2C(=O)N[C@@H](Cc2ccccc2)C(=O)N[C@@H](Cc2ccc(O)cc2)C(=O)N[C@@H](Cc2ccc(O)cc2)C(=O)N[C@@H](CCCCN)C(=O)N2C[C@H](O)C[C@H]2C(=O)N[C@@H]1C(=O)N[C@@H](CCCCN)C(N)=O` [NCBP-4] (H-K(Biotin)[Ahx]K[2Nal][Api]F[Gly(cPent)]FC[Hyp]FYYK[Hyp][Pen]K-NH2; disulfide 9-16; N-terminus assumed), the “fold increase in half-life with chymotrypsin relative to CBP” value came out at 40 fold.
